The values that follow come from patent US11542255B2, “Sulfonylureas and sulfonylthioureas as NLRP3 inhibitors” (Inflazome Limited, priority 2017, dated 2023).

In assay [1] the target is T1, NLRP3 (Homo sapiens, UniProt Q96P20). Briefly: THP-1 cells pyroptosis assay (LPS + nigericin, resazurin readout). The assay is classed as cell-based. Further details: Seed THP-1 cells (25,000 cells/well) containing 1.0 μg/ml LPS in 40 μl of RPMI medium; host or cells: THP-1 cells. The conditions noted are these: NLRP3 inhibitory activity, 1.0 μg/ml LPS, 5 μM nigericin. The protocol:
THP-1 cells (ATCC #TIB-202) were grown in RPMI containing L-glutamine (Gibco #11835) supplemented with 1 mM sodium pyruvate (Sigma #S8636) and penicillin (100 units/ml)/streptomycin (0.1 mg/ml) (Sigma #P4333) in 10% Fetal Bovine Serum (FBS) (Sigma #F0804). The cells were routinely passaged and grown to confluency (˜10^6 cells/ml). On the day of the experiment, THP-1 cells were harvested and resuspended into RPMI medium (without FBS). The cells were then counted and viability (>90%) checked by Trypan blue (Sigma #T8154). Appropriate dilutions were made to give a concentration of 625,000 cells/ml. To this diluted cell solution was added LPS (Sigma #L4524) to give a […] Final Assay Concentration (FAC). 40 μl of the final preparation was aliquoted into each well of a 96-well plate. The plate thus prepared was used for compound screening.
The following method step-by-step assay was followed for compound screening. • 1. Seed THP-1 cells (25,000 cells/well) containing 1.0 μg/ml LPS in 40 μl of RPMI medium (without FBS) in 96-well, black walled, clear bottom cell culture plates coated with poly-D-lysine (VWR #734-0317) • 2. Add 5 μl compound (8 points half-log dilution, with 10 μM top dose) or vehicle (DMSO 0.1% FAC) to the appropriate wells • 3. Incubate for 3 hrs at 37° C. in 5% CO2 • 4. Add 5 μl nigericin (Sigma #N7143) (FAC 5 μM) to all wells • 5. Incubate for 1 hr at 37° C. and 5% CO2 • 6. At the end of the incubation period, spin plates at 300×g for 3 mins and remove supernatant • 7. Then add 50 μl of resazurin (Sigma #R7017) (FAC 100 μM resazurin in RPMI medium without FBS) and incubate plates for a further 1-2 hrs at 37° C. and 5% CO2 • 8. Plates were read in an Envision reader at Ex 560 nm and Em 590 nm • 9. IC50 data is fitted to a non-linear regression equation (log inhibitor vs response-variable slope 4-parameters)

Assay [2] concerns the target T1, NLRP3. In words: Human whole blood IL1β release assay (LPS + nigericin, AlphaLisa IL-1β). The assay is classed as cell-based. Further details: Human whole blood in Li-heparin tubes was obtained from healthy donors from a volunteer donor panel; from tissue; host or cells: human whole blood from healthy donors. The settings on record: NLRP3 inhibitory activity, 1 μg/ml LPS, 10 μM nigericin, IL-1β release, read-out: HWB IC50. The procedure:
For systemic delivery, the ability to inhibit NLRP3 when the compounds are present within the bloodstream is of great importance. For this reason, the NLRP3 inhibitory activity of a number of compounds in human whole blood was investigated in accordance with the following protocol.
Human whole blood in Li-heparin tubes was obtained from healthy donors from a volunteer donor panel. • 1. Plate out 80 μl of whole blood containing 1 μg/ml of LPS in 96-well, clear bottom cell culture plate (Corning #3585) • 2. Add 10 μl compound (8 points half-log dilution with 10 μM top dose) or vehicle (DMSO 0.1% FAC) to the appropriate wells • 3. Incubate for 3 hrs at 37° C., 5% CO2 • 4. Add 10 μl Nigericin (Sigma #N7143) (10 μM FAC) to all wells • 5. Incubate for 1 hr at 37° C., 5% CO2 • 6. At the end of the incubation period, spin plates at 300×g for 5 mins to pellet cells and remove 20 μl of supernatant and add to 96-well v-bottom plates for IL-1β analysis (note: these plates containing the supernatants can be stored at −80° C. to be analysed at a later date) • 7. IL-1β was measured according to the manufacturer protocol (Perkin Elmer-AlphaLisa IL-1β Kit AL220F-5000) • 8. IC50 data is fitted to a non-linear regression equation (log inhibitor vs response-variable slope 4-parameters)
(In general: In Alpha technology, singlet oxygen from a donor bead excites a nearby acceptor bead.)

Structures can show the parent of a compound that is named as a salt.

T1 sequence (Q96P20 whole entry): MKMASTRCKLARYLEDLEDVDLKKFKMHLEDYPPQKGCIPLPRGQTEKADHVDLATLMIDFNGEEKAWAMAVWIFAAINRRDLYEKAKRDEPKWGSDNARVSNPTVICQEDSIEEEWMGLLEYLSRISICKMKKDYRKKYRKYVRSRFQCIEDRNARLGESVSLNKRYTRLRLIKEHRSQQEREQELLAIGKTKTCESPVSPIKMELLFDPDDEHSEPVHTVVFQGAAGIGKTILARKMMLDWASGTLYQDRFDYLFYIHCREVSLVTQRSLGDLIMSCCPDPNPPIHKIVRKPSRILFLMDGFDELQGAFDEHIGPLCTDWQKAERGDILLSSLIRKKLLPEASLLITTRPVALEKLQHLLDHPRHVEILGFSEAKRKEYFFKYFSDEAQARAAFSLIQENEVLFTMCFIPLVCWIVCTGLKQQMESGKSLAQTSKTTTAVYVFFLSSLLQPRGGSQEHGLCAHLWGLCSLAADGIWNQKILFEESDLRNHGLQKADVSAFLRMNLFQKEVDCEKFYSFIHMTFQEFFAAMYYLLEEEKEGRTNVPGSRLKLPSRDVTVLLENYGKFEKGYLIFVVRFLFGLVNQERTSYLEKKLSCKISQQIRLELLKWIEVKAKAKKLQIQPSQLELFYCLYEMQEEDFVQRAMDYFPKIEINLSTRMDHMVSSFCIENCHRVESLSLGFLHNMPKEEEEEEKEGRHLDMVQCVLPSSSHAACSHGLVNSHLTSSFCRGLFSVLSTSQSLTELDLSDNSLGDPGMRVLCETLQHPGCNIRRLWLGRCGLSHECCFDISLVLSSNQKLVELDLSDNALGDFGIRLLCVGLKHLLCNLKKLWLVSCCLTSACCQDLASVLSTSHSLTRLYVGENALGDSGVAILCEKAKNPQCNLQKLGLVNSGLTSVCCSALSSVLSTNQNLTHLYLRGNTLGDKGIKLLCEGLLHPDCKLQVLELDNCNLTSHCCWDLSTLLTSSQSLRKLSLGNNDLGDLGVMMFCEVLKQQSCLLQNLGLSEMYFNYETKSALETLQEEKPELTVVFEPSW

For the compound `CC(C)c1cc(F)cc(-c2cccnc2)c1NC(=O)NS(=O)(=O)c1cc(CN(C)C)n(C)n1` [Example 41, 5-((Dimethylamino)methyl)-N-((4-fluoro-2-isopropyl-6-(pyridin-3-yl)phenyl)carbamoyl)-1-methyl-1H-pyrazole-3-sulfonamide], the IC50 is 0.04 to 0.16 µM at NLRP3 [1] and less than 0.4 µM at NLRP3 [2].

As for `CC(C)c1cc(F)cc(-c2cccc(C#N)c2)c1NC(=O)NS(=O)(=O)c1cc(CN(C)C)n(C(C)C)n1` [Example 45, N-((3′-Cyano-5-fluoro-3-isopropyl-[1,1′-biphenyl]-2-yl)carbamoyl)-5-((dimethylamino)methyl)-1-isopropyl-1H-pyrazole-3-sulfonamide], the half-maximal inhibitory concentration (IC50) on NLRP3 [1] was 0.16 to 0.64 µM; on NLRP3 [2], 0.8 to 1.6 µM.

For the compound `CC(C)c1cc(F)cc(-c2cccc(C#N)c2)c1NC(=O)NS(=O)(=O)c1cc(CN(C)C)n(C)n1` [Example 46, N-((3′-Cyano-5-fluoro-3-isopropyl-[1,1′-biphenyl]-2-yl)carbamoyl)-5-((dimethylamino)methyl)-1-methyl-1H-pyrazole-3-sulfonamide], the IC50 at NLRP3 [1] was 0.04 to 0.16 µM; at NLRP3 [2], less than 0.4 µM.

`COc1cc(-c2cc(F)cc(C(C)C)c2NC(=O)NS(=O)(=O)c2cc(CN(C)C)n(C(C)C)n2)ccn1` [Example 47, 5-((Dimethylamino)methyl)-N-((4-fluoro-2-isopropyl-6-(2-methoxypyridin-4-yl)phenyl)carbamoyl)-1-isopropyl-1H-pyrazole-3-sulfonamide]: the IC50 on NLRP3 [1] is 0.04 to 0.16 µM; at NLRP3 [2], less than 0.4 µM.

Turning to `COc1cc(-c2cc(F)cc(C(C)C)c2NC(=O)NS(=O)(=O)c2cc(CN(C)C)n(C)n2)ccn1` [Example 48, 5-((Dimethylamino)methyl)-N-((4-fluoro-2-isopropyl-6-(2-methoxypyridin-4-yl)phenyl)carbamoyl)-1-methyl-1H-pyrazole-3-sulfonamide], the IC50 is less than 0.04 µM at NLRP3 [1] and less than 0.4 µM on NLRP3 [2].

As for `CCn1nc(S(=O)(=O)NC(=O)Nc2c(C(C)C)cc(F)cc2C(C)C)cc1CN(C)C` [Example 51, 5-((Dimethylamino)methyl)-1-ethyl-N-((4-fluoro-2,6-diisopropylphenyl)carbamoyl)-1H-pyrazole-3-sulfonamide], the IC50 on NLRP3 [1] is 0.16 to 0.64 µM; on NLRP3 [2], less than 0.4 µM.

For the compound `CC(C)n1nc(S(=O)(=O)NC(=O)Nc2c3c(cc4c2CCC4)CCC3)cc1CN1CCC1` [Example 53, 5-(Azetidin-1-ylmethyl)-N-((1,2,3,5,6,7-hexahydro-s-indacen-4-yl)carbamoyl)-1-isopropyl-1H-pyrazole-3-sulfonamide], the IC50 was less than 0.04 µM at NLRP3 [1] and 0.4 to 0.8 µM on NLRP3 [2].

As to `CC(C)c1cc(F)cc(-c2cccnc2)c1NC(=O)NS(=O)(=O)c1cc(CN(C)C)n(C(C)C)n1` [Example 54, 5-((Dimethylamino)methyl)-N-((4-fluoro-2-isopropyl-6-(pyridin-3-yl)phenyl)carbamoyl)-1-isopropyl-1H-pyrazole-3-sulfonamide], the IC50 fell in the range of 0.16 to 0.64 µM on NLRP3 [1] and 0.4 to 0.8 µM on NLRP3 [2].

On to `CC(C)c1cc(Cl)cc(C(C)C)c1NC(=O)NS(=O)(=O)c1cc(CN(C)C)n(C(C)C)n1` [Example 55, N-((4-Chloro-2,6-diisopropylphenyl)carbamoyl)-5-((dimethylamino)methyl)-1-isopropyl-1H-pyrazole-3-sulfonamide], for which the results for the IC50 on NLRP3 [1] and at NLRP3 [2] were 0.04 to 0.16 µM and 1.6 to 3.2 µM, respectively.

For `CC(C)n1nc(S(=O)(=O)NC(=O)Nc2c3c(cc4c2CCC4)CCC3)cc1CN(C)CC(F)F` [Example 56, 5-(((2,2-Difluoroethyl)(methyl)amino)methyl)-N-((1,2,3,5,6,7-hexahydro-s-indacen-4-yl)carbamoyl)-1-isopropyl-1H-pyrazole-3-sulfonamide, Sodium Salt], the IC50 at NLRP3 [1] was 0.04 to 0.16 µM; on NLRP3 [2] it was 3.2 to 10 µM.

`CC(C)n1nc(S(=O)(=O)NC(=O)Nc2c3c(cc4c2CCC4)CCC3)cc1CN(C)CCF` [Example 57, 5-(((2-Fluoroethyl)(methyl)amino)methyl)-N-((1,2,3,5,6,7-hexahydro-s-indacen-4-yl)carbamoyl)-1-isopropyl-1H-pyrazole-3-sulfonamide, Sodium Salt]: the IC50 is less than 0.04 µM on NLRP3 [1] and 1.6 to 3.2 µM at NLRP3 [2].

In the case of `CN(C)C1(c2cc(S(=O)(=O)NC(=O)Nc3c4c(cc5c3CCC5)CCC4)nn2C)CC1` [Example 58, 5-(1-(Dimethylamino)cyclopropyl)-N-((1,2,3,5,6,7-hexahydro-s-indacen-4-yl)carbamoyl)-1-methyl-1H-pyrazole-3-sulfonamide, Sodium Salt], the IC50 lay within 0.04 to 0.16 µM at NLRP3 [1] and 0.8 to 1.6 µM on NLRP3 [2].

`CN(C)CCc1cc(S(=O)(=O)NC(=O)Nc2c3c(cc4c2CCC4)CCC3)nn1C` [Example 59, 5-(2-(Dimethylamino)ethyl)-N-((1,2,3,5,6,7-hexahydro-s-indacen-4-yl)carbamoyl)-1-methyl-1H-pyrazole-3-sulfonamide]: the IC50 lay in the range of 0.16 to 0.64 µM on NLRP3 [1] and 0.8 to 1.6 µM on NLRP3 [2].

In the case of `CN(C)C1CCCn2nc(S(=O)(=O)NC(=O)Nc3c4c(cc5c3CCC5)CCC4)cc21` (centres unmarked) [Example 60, 4-(Dimethylamino)-N-((1,2,3,5,6,7-hexahydro-s-indacen-4-yl)carbamoyl)-4,5,6,7-tetrahydropyrazolo[1,5-a]pyridine-2-sulfonamide], the IC50 on NLRP3 [1] is less than 0.04 µM; on NLRP3 [2], 0.4 to 0.8 µM.

Regarding `CCC(c1cc(S(=O)(=O)NC(=O)Nc2c(C(C)C)cc(F)cc2C(C)C)nn1C(C)C)N(C)C` (centres unmarked) [Example 62, 5-(1-(Dimethylamino)propyl)-N-((4-fluoro-2,6-diisopropylphenyl)carbamoyl)-1-isopropyl-1H-pyrazole-3-sulfonamide], the IC50 at NLRP3 [1] was in the range of 0.16 to 0.64 µM; at NLRP3 [2], 0.4 to 0.8 µM.

For `CCC(c1cc(S(=O)(=O)NC(=O)Nc2c(C(C)C)cc(Cl)cc2C(C)C)nn1C)N(C)C` (centres unmarked) [Example 64, N-((4-Chloro-2,6-diisopropylphenyl)carbamoyl)-5-(1-(dimethylamino)propyl)-1-methyl-1H-pyrazole-3-sulfonamide], the IC50 is less than 0.04 µM at NLRP3 [1] and 0.8 to 1.6 µM on NLRP3 [2].

As to `CCC(c1cc(S(=O)(=O)NC(=O)Nc2c(C(C)C)cc(F)cc2C(C)C)nn1C)N(C)C` (centres unmarked) [Example 65, 5-(1-(Dimethylamino)propyl)-N-((4-fluoro-2,6-diisopropylphenyl)carbamoyl)-1-methyl-1H-pyrazole-3-sulfonamide], the half-inhibitory concentration (IC50) on NLRP3 [1] is less than 0.04 µM; at NLRP3 [2] it was less than 0.4 µM.

Consider `CC(C)c1cc(F)cc(-c2ccccc2)c1NC(=O)NS(=O)(=O)c1cc(CN(C)C)n(C)n1` [Example 66, 5-((Dimethylamino)methyl)-N-((5-fluoro-3-isopropyl-[1,1′-biphenyl]-2-yl)carbamoyl)-1-methyl-1H-pyrazole-3-sulfonamide], for which the values for the IC50 on NLRP3 [1] and at NLRP3 [2] were 0.16 to 0.64 µM and 0.4 to 0.8 µM, respectively.

`CNCc1cc(S(=O)(=O)NC(=O)Nc2c3c(cc4c2CCC4)CCC3)nn1C` [Example 67, N-((1,2,3,5,6,7-Hexahydro-s-indacen-4-yl)carbamoyl)-1-methyl-5-((methylamino)methyl)-1H-pyrazole-3-sulfonamide]: the concentration for half-maximal inhibition (IC50) at NLRP3 [1] lay in the range of 0.04 to 0.16 µM; on NLRP3 [2] it was 0.4 to 0.8 µM.

A word on the IC50: it is the concentration that inhibits the measured activity by half.
